{
  "source": "paper PMC4815915",
  "about": "(Bioorganic & medicinal chemistry letters, 2015)",
  "key": {"[1]": {"system": "Plasmodium falciparum 3D7 strain", "experiment": "In vitro antiplasmodial activity against chloroquine-susceptible 3D7 strain", "format": "cell-based"}, "[2]": {"system": "rat microglia TXB2 generation", "details": "read-out: TXB2 generation apparent IC50; cited from earlier work"}},
  "data": [
    {"smiles": "CCN(CC)CCCC(C)Nc1ccnc2cc(Cl)ccc12", "note": "(stereo not drawn) [CQ, chloroquine]", "values": [
      {"measurement": "IC50", "setting": "[1]; Plasmodium falciparum, 3D7, read-out: 3D7 IC50 ± SE", "result": "6.6 ± 0.0008", "unit": "nM"}
    ]},
    {"smiles": "[C-]#[N+]C(C)(C)C[C@@H]1C[C@H](C)[C@H]2CC[C@H](C)[C@@]3([N+]#[C-])CCC(=C)[C@@H]1[C@H]23", "note": "[Compound 3, 8,15-diisocyano-11(20)-amphilectene]", "values": [
      {"measurement": "Fold more active than the standard drug CQ (3D7)", "setting": "[1]; antiplasmodial IC50 compared with chloroquine", "result": 5.5, "unit": "times"}
    ]},
    {"smiles": "CC(C(=O)O)c1ccc(-c2ccccc2)c(F)c1", "note": "(stereo not drawn) [flurbiprofen]", "values": [
      {"measurement": "IC50", "setting": "[2]", "result": 100, "unit": "nM"}
    ]}
  ]
}
